Earlier results as cited in paper PMC9184463, “Structural basis of ligand binding modes of human EAAT2” (Nature Communications, 2022).

System: hEAAT1
Conditions: cited from earlier work

Compound: NC(CC(=O)Nc1ccc(Oc2cc(F)c(F)cc2Br)cc1)C(=O)O (centres unmarked) [WAY-213613]
- IC50 (hEAAT1): 5 µM
- selectivity (affinity) for hEAAT2 over hEAAT1 (hEAAT2 over hEAAT1): 59 fold
